# Key:
# [1] = biological target: PAR4 (Homo sapiens (Human), UniProt Q96RI0); assay: FLIPR assay in PAR4-expressing HEK293 cells (calcium mobilization); assay type: cell-based; conditions: H-Ala-Phe(4-F)-Pro-Gly-Trp-Leu-Val-Lys-Asn-Gly-NH2-induced calcium mobilization, PAR4 antagonist activity
# Text: The FLIPR assay is an exemplary in vitro assay for measuring the activity of the PAR4 antagonists of the present invention. In this assay, intracellular calcium mobilization is induced in PAR4 expressing cells by a PAR4 agonist and calcium mobilization is monitored.
# HEK293 cells stably expressing PAR4 were generated by a standard method of transfection of human PAR4 (F2R23) cDNA expression vector and selected based on PAR4 protein expression or mRNA expression. […] Therefore, the same cells were also used to determine selectivity against PAR1 and agonist activity for both receptors.
# FLIPR-based calcium mobilization assay in HEK293 cells was used to measure PAR4 antagonism, agonism, and selectivity against PAR1. […] Counter screens for agonist activity and PAR1 antagonist activity were also performed. Briefly, PAR1/PAR4-expressing HEK293 cells were grown in DMEM (Life Technology, Grand Island, N.Y.) containing 10% heat-inactivated FBS, 1% Penicillin-Streptomycin, 10 μg/mL blasticidin, and 100 μg/mL Zeocin at 37° C. with 5% CO2. Cells were plated overnight prior to the experiment in a black 384-well Purecoat Amine clear bottom plate (Becton Dickinson Biosciences, San Jose, Calif.) at 10,000 cells/well in 30 μL growth medium and incubated in a humidified chamber at 37° C. with 5% CO2 overnight. Prior to compound addition, the cell medium was replaced with 40 μL of 1× calcium and magnesium-containing Hank's Balanced Saline Solution (HBSS) (with 20 mM HEPES) and 1:1000 diluted fluorescent calcium indicator (Codex Biosolutions, Gaithersburg, Md.). After a 30 minute incubation period at 37° C. and a further 30 minute incubation and equilibration period at room temperature, 20 μL test compound (diluted in 1×HBSS buffer) was added at various concentrations at 0.17% dimethyl sulfoxide (DMSO) final concentration. Changes in fluorescence intensity were measured using a Functional Drug Screening System (FDSS, Hamamatsu, Japan) to determine agonist activities. The cells were then incubated for 30 minutes at room temperature followed by addition of 20 μL of agonist peptide for antagonist activity measurement. […] Compound potency was derived from 11-point concentration-response curves.
# [2] = biological target: PAR1 (Homo sapiens (Human), UniProt P25116); conditions: ACS patients, phase III; cited from earlier work
# PAR1, sequence (P25116 22-425): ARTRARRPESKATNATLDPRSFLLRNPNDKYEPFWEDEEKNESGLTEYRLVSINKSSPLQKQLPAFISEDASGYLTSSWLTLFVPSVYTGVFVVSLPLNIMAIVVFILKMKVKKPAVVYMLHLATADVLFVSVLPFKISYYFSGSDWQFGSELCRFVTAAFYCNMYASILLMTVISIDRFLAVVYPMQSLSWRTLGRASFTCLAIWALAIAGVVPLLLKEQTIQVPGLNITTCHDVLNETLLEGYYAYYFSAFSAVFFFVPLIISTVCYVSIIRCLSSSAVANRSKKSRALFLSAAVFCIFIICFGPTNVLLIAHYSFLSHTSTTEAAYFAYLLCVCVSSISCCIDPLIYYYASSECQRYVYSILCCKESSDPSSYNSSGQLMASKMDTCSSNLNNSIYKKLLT
# PAR4, sequence (Q96RI0 18-385): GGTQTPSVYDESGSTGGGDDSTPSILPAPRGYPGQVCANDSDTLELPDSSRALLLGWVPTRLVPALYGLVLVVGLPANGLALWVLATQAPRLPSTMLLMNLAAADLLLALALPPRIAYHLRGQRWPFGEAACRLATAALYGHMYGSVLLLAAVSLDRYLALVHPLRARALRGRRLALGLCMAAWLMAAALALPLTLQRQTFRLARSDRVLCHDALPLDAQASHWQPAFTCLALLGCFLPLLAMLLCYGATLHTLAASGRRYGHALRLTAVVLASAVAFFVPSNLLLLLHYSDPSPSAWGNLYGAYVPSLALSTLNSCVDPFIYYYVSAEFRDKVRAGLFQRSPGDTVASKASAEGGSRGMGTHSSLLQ
SMILES,IC50 [1] [nM],cardiovascular events [2],risk of major bleeding [2]
"COc1cc(OCc2csc(-c3ccc(C(=O)N4CCOC[C@H]4CO)cc3)n2)c2sc(-c3cn4nc(C)sc4n3)nc2c1 [Example 9, (R)-(3-(Hydroxymethyl)morpholino)(4-(4-(((5-methoxy-2-(2-methylimidazo[2,1-b][1,3,4]thiadiazol-6-yl)benzo[d]thiazol-7-yl)oxy)methyl)thiazol-2-yl)phenyl)methanone]",330,,
"COc1cc(OCc2csc(-c3ccc(C(=O)N(C)C)cc3)n2)c2sc(-c3cn4nc(C)sc4n3)nc2c1 [Example 6, 4-(4-(((5-Methoxy-2-(2-methylimidazo[2,1-b][1,3,4]thiadiazol-6-yl)benzo[d]thiazol-7-yl)oxy)methyl)thiazol-2-yl)-N,N-dimethylbenzamide]",3800,,
"COc1cc(OCc2csc(-c3ccc(C(=O)N(C)CC#N)cc3)n2)c2sc(-c3cn4nc(C(C)(F)F)sc4n3)nc2c1 [Example 17, N—(Cyanomethyl)-4-(4-(((2-(2-(1,1-difluoroethyl)imidazo[2,1-b][1,3,4]thiadiazol-6-yl)-5-methoxybenzo[d]thiazol-7-yl)oxy)methyl)thiazol-2-yl)-N-methylbenzamide]",2600,,
"COc1cc(OCc2nc(-c3ccc(C(=O)N4CCC[C@H](O)C4)cc3)sc2C)c2sc(-c3cn4nc(C)sc4n3)nc2c1 [Example 38, (S)-(3-Hydroxypiperidin-1-yl)(4-(4-(((5-methoxy-2-(2-methylimidazo[2,1-b][1,3,4]thiadiazol-6-yl)benzo[d]thiazol-7-yl)oxy)methyl)-5-methylthiazol-2-yl)phenyl)methanone]",1600,,
"COc1cc(OCc2csc(-c3ccc(C(=O)N(C)C4CCOCC4)cc3)n2)c2sc(-c3cn4nc(C)sc4n3)nc2c1 [Example 10, 4-(4-(((5-Methoxy-2-(2-methylimidazo[2,1-b][1,3,4]thiadiazol-6-yl)benzo[d]thiazol-7-yl)oxy)methyl)thiazol-2-yl)-N-methyl-N-(tetrahydro-2H-pyran-4-yl)benzamide]",980,,
"COc1cc(OCc2nc(-c3ccc(C(=O)N(C)C)cc3)sc2C)c2sc(-c3cn4nc(C)sc4n3)nc2c1 [Example 41, 4-(4-(((5-Methoxy-2-(2-methylimidazo[2,1-b][1,3,4]thiadiazol-6-yl)benzo[d]thiazol-7-yl)oxy)methyl)-5-methylthiazol-2-yl)-N,N-dimethylbenzamide]",1700,,
"COc1cc(OCc2csc(-c3ccc(C(=O)N(C)C)cc3)n2)c2sc(-c3cn4nc(C)ccc4n3)nc2c1 [Example 44, 4-(4-(((5-Methoxy-2-(6-methylimidazo[1,2-b]pyridazin-2-yl)benzo[d]thiazol-7-yl)oxy)methyl)thiazol-2-yl)-N,N-dimethylbenzamide]",2600,,
"COc1cc(OCc2csc(-c3ccc(C(=O)N(C)C)cc3)n2)c2sc(-c3cn4nc(C(C)(F)F)sc4n3)nc2c1 [Example 18, 4-(4-(((2-(2-(1,1-difluoroethyl)imidazo[2,1-b][1,3,4]thiadiazol-6-yl)-5-methoxybenzo[d]thiazol-7-yl)oxy)methyl)thiazol-2-yl)-N,N-dimethylbenzamide]",5100,,
"COc1cc(OCc2csc(-c3ccc(C(=O)N(CCO)C(C)(C)C)cc3)n2)c2sc(-c3cn4nc(C(C)(F)F)sc4n3)nc2c1 [Example 19, N-(tert-Butyl)-4-(4-(((2-(2-(1,1-difluoroethyl)imidazo[2,1-b][1,3,4]thiadiazol-6-yl)-5-methoxybenzo[d]thiazol-7-yl)oxy)methyl)thiazol-2-yl)-N-(2-hydroxyethyl)benzamide]",81000,,
"CCc1nn2cc(-c3nc4cc(OC)cc(OCc5csc(-c6ccc(C(=O)NCC(C)(C)CO)cc6)n5)c4s3)nc2s1 [Example 32, 4-(4-(((2-(2-Ethylimidazo[2,1-b][1,3,4]thiadiazol-6-yl)-5-methoxybenzo[d]thiazol-7-yl)oxy)methyl)thiazol-2-yl)-N-(3-hydroxy-2,2-dimethylpropyl)benzamide]",1400,,
COc1cc(OCc2csc(-c3ccc(C(=O)N4CC[C@@H](CO)C4)cc3)n2)c2sc(-c3cn4nc(C)sc4n3)nc2c1 [Example 8],1800,,
"COc1cc(OCc2csc(-c3ccc(C(=O)N4CCOC[C@@H]4CO)cc3)n2)c2sc(-c3cn4nc(C)sc4n3)nc2c1 [Example 11, (S)-(3-(Hydroxymethyl)morpholino)(4-(4-(((5-methoxy-2-(2-methylimidazo[2,1-b][1,3,4]thiadiazol-6-yl)benzo[d]thiazol-7-yl)oxy)methyl)thiazol-2-yl)phenyl)methanone]",1400,,
COc1cc(OCc2csc(-c3ccc(C(=O)N4CCC(C)(CO)CC4)cc3)n2)c2sc(-c3cn4nc(C)sc4n3)nc2c1 [Example 67],930,,
"COc1cc(OCc2csc(-c3ccc(C(=O)N4CCC[C@H](O)C4)cc3)n2)c2sc(-c3cn4nc(C(C)(F)F)sc4n3)nc2c1 [Example 16, (S)-(4-(4-(((2-(2-(1,1-Difluoroethyl)imidazo[2,1-b][1,3,4]thiadiazol-6-yl)-5-methoxybenzo[d]thiazol-7-yl)oxy)methyl)thiazol-2-yl)phenyl)(3-hydroxypiperidin-1-yl)methanone]",15000,,
CCOC(=O)N[C@@H]1CC[C@@H]2[C@@H](C1)C[C@H]1C(=O)O[C@H](C)[C@H]1[C@H]2/C=C/c1ccc(-c2cccc(F)c2)cn1 [vorapaxar],,did not significantly reduce,significantly increased
"COc1cc(OCc2csc(-c3ccc(C(=O)N(C)CC#N)cc3)n2)c2sc(-c3cn4nc(C)sc4n3)nc2c1 [Example 5, N—(Cyanomethyl)-4-(4-(((5-methoxy-2-(2-methylimidazo[2,1-b][1,3,4]thiadiazol-6-yl)benzo[d]thiazol-7-yl)oxy)methyl)thiazol-2-yl)-N-methylbenzamide]",1100,,
"CCc1nn2cc(-c3nc4cc(OC)cc(OCc5csc(-c6ccc(C(=O)N7CCC[C@H](O)C7)cc6)n5)c4s3)nc2s1 [Example 33, (S)-(4-(4-(((2-(2-Ethylimidazo[2,1-b][1,3,4]thiadiazol-6-yl)-5-methoxybenzo[d]thiazol-7-yl)oxy)methyl)thiazol-2-yl)phenyl)(3-hydroxypiperidin-1-yl)methanone]",3600,,
"COc1cc(OCc2csc(-c3ccc(C(=O)N(CCO)C(C)(C)C)cc3)n2)c2sc(-c3cn4nc(C5CC5)sc4n3)nc2c1 [Example 29, N-(tert-Butyl)-4-(4-(((2-(2-cyclopropylimidazo[2,1-b][1,3,4]thiadiazol-6-yl)-5-methoxybenzo[d]thiazol-7-yl)oxy)methyl)thiazol-2-yl)-N-(2-hydroxyethyl)benzamide]",80000,,
"COc1cc(OCc2csc(-c3ccc(C(=O)O)cc3)n2)c2sc(-c3cn4nc(C)sc4n3)nc2c1 [Example 2, 4-(4-(((5-Methoxy-2-(2-methylimidazo[2,1-b][1,3,4]thiadiazol-6-yl)benzo[d]thiazol-7-yl)oxy)methyl)thiazol-2-yl)benzoic acid]",45000,,
"COc1cc(OCc2nc(-c3ccc(C(=O)NCC(C)(C)CO)cc3)sc2C)c2sc(-c3cn4nc(C)sc4n3)nc2c1 [Example 40, N-(3-Hydroxy-2,2-dimethylpropyl)-4-(4-(((5-methoxy-2-(2-methylimidazo[2,1-b][1,3,4]thiadiazol-6-yl)benzo[d]thiazol-7-yl)oxy)methyl)-5-methylthiazol-2-yl)benzamide]",1600,,

# From patent publication US10238638B2, “Benzothiazole and benzothiophene compounds” (Bristol-Myers Squibb Company, priority 2015, dated 2019)
